Each block holds one molecule with its values, some of them ahead of it. Calls of active or inactive are those of the source. The rule behind the calls is not given here.
What was measured:
2008 = assay: Antiproliferative activity against human 2008 cells assessed as inhibition of cell growth incubated for 72 hrs by SRB assay; type: functional, cell-based; details: Homo sapiens, 2008, 72 h
SW-620 = assay: Antiproliferative activity against human SW-620 cells assessed as inhibition of cell growth incubated for 72 hrs by SRB assay; type: functional, cell-based; details: SW-620, 72 h
NCI-H446 [1] = assay: Antiproliferative activity against Irinotecan-resistant human NCI-H446 cells assessed as inhibition of cell growth incubated for 72 hrs by SRB assay; type: functional, cell-based; details: NCI-H446, 72 h
[2] = Resistance index, ratio of IC50 for antiproliferative activity against Irinotecan-resistant human NCI-H446 cells to IC50 for antiproliferative activity against human NCI-H446 cells; type: functional
[3] = Resistance index, ratio of IC50 for antiproliferative activity against etoposide/cisplatin combination-resistant human NCI-H446 cells to IC50 for antiproliferative activity against human NCI-H446 cells; type: functional
NCI-H446 [4] = assay: Antitumor activity against human NCI-H446 cells xenografted in BALB/c nude mouse assessed as tumor growth inhibition at 3 mg/kg, IG administered once a week for 28 days by electronic caliper method relative to control; type: functional; details: NCI-H446, po, 672 h, time 28 day, read-out: TGI
NCI-H446 [5] = assay: Antiproliferative activity against etoposide/cisplatin combination-resistant human NCI-H446 cells assessed as inhibition of cell growth incubated for 72 hrs by SRB assay; type: functional, cell-based; details: NCI-H446, 72 h
NCI-H446 [6] = assay: Antitumor activity against Irinotecan-resistant human NCI-H446 cells xenografted in BALB/c nude mouse assessed as tumor weight at 100 mg/kg, IG administered once a week and measured 3 times a week for 35 days; type: functional; details: time 35 day
HepG2 = assay: Antiproliferative activity against human HepG2 cells assessed as inhibition of cell growth incubated for 72 hrs by SRB assay; type: functional, cell-based; details: HepG2, 72 h
Bel-7402 = assay: Antiproliferative activity against human Bel-7402 cells assessed as inhibition of cell growth incubated for 72 hrs by SRB assay; type: functional, cell-based; details: Bel-7402, 72 h
H69AR [7] = assay: Antiproliferative activity against human NCI-H69AR cells assessed as inhibition of cell growth incubated for 72 hrs by SRB assay; type: functional, cell-based
SH-SY5Y = assay: Antiproliferative activity against human SH-SY5Y cells assessed as inhibition of cell growth incubated for 72 hrs by SRB assay; type: functional, cell-based
MCF7 = assay: Antiproliferative activity against human MCF7 cells assessed as inhibition of cell growth incubated for 72 hrs by SRB assay; type: functional, cell-based; details: MCF7, 72 h
NCI-H69 = assay: Antiproliferative activity against human NCI-H69 cells assessed as inhibition of cell growth incubated for 72 hrs by SRB assay; type: functional, cell-based; details: NCI-H69, 72 h
U-87 MG = assay: Antiproliferative activity against human U87 cells assessed as inhibition of cell growth incubated for 72 hrs by SRB assay; type: functional, cell-based, U-87MG ATCC
NCI-H446 [8] = assay: Induction of apoptosis in human NCI-H446 cells assessed as early apoptotic cells at 0.1 nM incubated for 24 hrs by AnnexinV-FITC/PI staining based flow cytometry analysis (reference value: 2.43 %); type: functional
NCI-H446 [9] = assay: Induction of apoptosis in human NCI-H446 cells assessed as late apoptotic cells at 0.1 nM incubated for 24 hrs by AnnexinV-FITC/PI staining based flow cytometry analysis (reference value: 1.55 %); type: functional
NCI-H446 [10] = assay: Induction of apoptosis in human NCI-H446 cells assessed as dead cells at 0.1 nM incubated for 24 hrs by AnnexinV-FITC/PI staining based flow cytometry analysis (reference value: 0.33 %); type: functional
NCI-H446 [11] = assay: Induction of apoptosis in human NCI-H446 cells assessed as early apoptotic cells at 1 nM incubated for 24 hrs by AnnexinV-FITC/PI staining based flow cytometry analysis (reference value: 2.43 %); type: functional
NCI-H446 [12] = assay: Induction of apoptosis in human NCI-H446 cells assessed as late apoptotic cells at 1 nM incubated for 24 hrs by AnnexinV-FITC/PI staining based flow cytometry analysis (reference value: 1.55 %); type: functional
NCI-H446 [13] = assay: Induction of apoptosis in human NCI-H446 cells assessed as dead cells at 1 nM incubated for 24 hrs by AnnexinV-FITC/PI staining based flow cytometry analysis (reference value: 0.33 %); type: functional
NCI-H446 [14] = assay: Induction of apoptosis in human NCI-H446 cells assessed as early apoptotic cells at 10 nM incubated for 24 hrs by AnnexinV-FITC/PI staining based flow cytometry analysis (reference value: 2.43 %); type: functional
NCI-H446 [15] = assay: Induction of apoptosis in human NCI-H446 cells assessed as late apoptotic cells at 10 nM incubated for 24 hrs by AnnexinV-FITC/PI staining based flow cytometry analysis (reference value: 1.55 %); type: functional
NCI-H446 [16] = assay: Induction of apoptosis in human NCI-H446 cells assessed as dead cells at 10 nM incubated for 24 hrs by AnnexinV-FITC/PI staining based flow cytometry analysis (reference value: 0.33 %); type: functional
H69AR [17] = assay: Induction of apoptosis in human NCI-H69AR cells assessed as early apoptotic cells at 1 nM incubated for 24 hrs by AnnexinV-FITC/PI staining based flow cytometry analysis (reference value: 0.35 %); type: functional
H69AR [18] = assay: Induction of apoptosis in human NCI-H69AR cells assessed as late apoptotic cells at 1 nM incubated for 24 hrs by AnnexinV-FITC/PI staining based flow cytometry analysis (reference value: 2.99 %); type: functional
H69AR [19] = assay: Induction of apoptosis in human NCI-H69AR cells assessed as dead cells at 1 nM incubated for 24 hrs by AnnexinV-FITC/PI staining based flow cytometry analysis (reference value: 1.92 %); type: functional
H69AR [20] = assay: Induction of apoptosis in human NCI-H69AR cells assessed as early apoptotic cells at 10 nM incubated for 24 hrs by AnnexinV-FITC/PI staining based flow cytometry analysis (reference value: 0.35 %); type: functional
H69AR [21] = assay: Induction of apoptosis in human NCI-H69AR cells assessed as late apoptotic cells at 10 nM incubated for 24 hrs by AnnexinV-FITC/PI staining based flow cytometry analysis (reference value: 2.99 %); type: functional
H69AR [22] = assay: Induction of apoptosis in human NCI-H69AR cells assessed as dead cells at 10 nM incubated for 24 hrs by AnnexinV-FITC/PI staining based flow cytometry analysis (reference value: 1.92 %); type: functional
H69AR [23] = assay: Induction of apoptosis in human NCI-H69AR cells assessed as early apoptotic cells at 100 nM incubated for 24 hrs by AnnexinV-FITC/PI staining based flow cytometry analysis (reference value: 0.35 %); type: functional
H69AR [24] = assay: Induction of apoptosis in human NCI-H69AR cells assessed as late apoptotic cells at 100 nM incubated for 24 hrs by AnnexinV-FITC/PI staining based flow cytometry analysis (reference value: 2.99 %); type: functional
H69AR [25] = assay: Induction of apoptosis in human NCI-H69AR cells assessed as dead cells at 100 nM incubated for 24 hrs by AnnexinV-FITC/PI staining based flow cytometry analysis (reference value: 1.92 %); type: functional
NCI-H446 [26] = assay: Induction of apoptosis in human NCI-H446 cells assessed as increase in cleaved-PARP protein expression at 0.1 to 100 nM measured after 24 hrs by Western blot analysis; type: functional, cell-based; details: dose 0.1-100 nM
NCI-H446 [27] = assay: Induction of apoptosis in human NCI-H446 cells assessed as increase in cleaved-caspase 9 protein expression at 0.1 to 100 nM measured after 24 hrs by Western blot analysis; type: functional, cell-based; details: dose 0.1-100 nM
NCI-H446 [28] = assay: Induction of apoptosis in human NCI-H446 cells assessed as increase in cleaved-caspase 3 protein expression at 0.1 to 100 nM measured after 24 hrs by Western blot analysis; type: functional, cell-based; details: dose 0.1-100 nM

SMILES: CC[C@@]1(O)C(=O)OCc2c1cc1n(c2=O)Cc2c-1nc1cc3c(cc1c2-c1ccncc1)OCO3
IC50 2008: 93.5 nM
IC50 (SW-620): 2.67 nM

SMILES: CC[C@@]1(O)C(=O)OCc2c1cc1n(c2=O)Cc2c-1nc1cc3c(cc1c2-c1cccs1)OCO3
IC50 2008: 4.03 nM
IC50 (SW-620): 0.29 nM

IC50 (NCI-H446 [1]): 5.71 nM
SMILES: COc1cccc2c1C(=O)c1c(O)c3c(c(O)c1C2=O)C[C@@](O)(C(=O)CO)C[C@@H]3O[C@H]1C[C@H](N)[C@H](O)[C@H](C)O1 [DOXORUBICIN]
Ratio IC50 [2]: 14.64
Ratio IC50 [3]: 46.56

SMILES: CC[C@@]1(O)C(=O)OCc2c1cc1n(c2=O)Cc2c-1nc1cc3c(cc1c2-c1cc(C(F)(F)F)cc(C(F)(F)F)c1)OCO3
IC50 2008: 49.7 nM
IC50 (SW-620): 1.44 nM

IC50 (SW-620): > 500 nM
SMILES: CC[C@@]1(O)C(=O)OCc2c1cc1n(c2=O)Cc2cc3c(CN(C)C)c(O)ccc3nc2-1 [TOPOTECAN]
IC50 2008: > 500 nM

SMILES: CC[C@@]1(O)C(=O)OCc2c1cc1n(c2=O)Cc2c-1nc1cc3c(cc1c2-c1ccco1)OCO3
IC50 2008: 0.16 nM
IC50 (SW-620): 102 nM

SMILES: CC[C@@]1(O)C(=O)OCc2c1cc1n(c2=O)Cc2c-1nc1cc3c(cc1c2-c1ccsc1)OCO3
IC50 2008: 39.2 nM
IC50 (SW-620): 0.36 nM

SMILES: CC[C@@]1(O)C(=O)OCc2c1cc1n(c2=O)Cc2c-1nc1cc3c(cc1c2-c1cccnc1)OCO3
IC50 2008: 11.6 nM
IC50 (SW-620): 0.17 nM

IC50 (NCI-H446 [1]): 192 nM
SMILES: COc1cc([C@@H]2c3cc4c(cc3[C@@H](O[C@@H]3O[C@@H]5CO[C@@H](C)O[C@H]5[C@H](O)[C@H]3O)[C@H]3COC(=O)[C@H]23)OCO4)cc(OC)c1O [ETOPOSIDE]
Ratio IC50 [2]: 11.48
Ratio IC50 [3]: 19.28

IC50 (NCI-H446 [1]): 0.15 nM
IC50 (NCI-H446 [5]): 0.13 nM
SMILES: CCc1c2c(nc3ccc(OC(=O)N4CCC(N5CCCCC5)CC4)cc13)-c1cc3c(c(=O)n1C2)COC(=O)[C@]3(O)CC [IRINOTECAN]
inhibition in vivo at 3 mg/kg (NCI-H446 [4]): 26.8%
Ratio IC50 [2]: 15
Ratio IC50 [3]: 13
Activity (NCI-H446 [6]): 2.28 g

SMILES: CC[C@@]1(O)C(=O)OCc2c1cc1n(c2=O)Cc2c-1nc1cc3c(cc1c2-c1ccc(CO)cc1)OCO3
IC50 2008: 7.67 nM
IC50 (SW-620): 0.28 nM

SMILES: CC[C@@]1(O)C(=O)OCc2c1cc1n(c2=O)Cc2cc3cc4c(cc3nc2-1)OCO4
IC50 2008: 37.3 nM
IC50 (SW-620): 0.93 nM
IC50 (HepG2): 10.6 nM
IC50 (Bel-7402): 21.8 nM
IC50 (H69AR [7]): 6.29 nM
IC50 (SH-SY5Y): 24.2 nM
IC50 (MCF7): 63.3 nM
IC50 (NCI-H69): 15.8 nM
IC50 (U-87 MG): 109 nM
Activity (NCI-H446 [8]): 3.93%
Activity (NCI-H446 [9]): 0.83%
Activity (NCI-H446 [10]): 0.34%
Activity (NCI-H446 [11]): 9.64%
Activity (NCI-H446 [12]): 1.83%
Activity (NCI-H446 [13]): 0.97%
Activity (NCI-H446 [14]): 14.27%
Activity (NCI-H446 [15]): 2.82%
Activity (NCI-H446 [16]): 0.37%
Activity (H69AR [17]): 0.58%
Activity (H69AR [18]): 5.73%
Activity (H69AR [19]): 1.72%
Activity (H69AR [20]): 0.43%
Activity (H69AR [21]): 7.33%
Activity (H69AR [22]): 2.87%
Activity (H69AR [23]): 1.3%
Activity (H69AR [24]): 32.78%
Activity (H69AR [25]): 1.56%
Activity (NCI-H446 [26]): Active
Activity (NCI-H446 [27]): Active
Activity (NCI-H446 [28]): Active
inhibition in vivo at 3 mg/kg (NCI-H446 [4]): 27.7%
IC50 (NCI-H446 [1]): 18.5 nM
Ratio IC50 [2]: 2.09
IC50 (NCI-H446 [5]): 6.61 nM
Ratio IC50 [3]: 0.78

SMILES: CC[C@@]1(O)C(=O)OCc2c1cc1n(c2=O)Cc2c-1nc1cc3c(cc1c2-c1cnn(C)c1)OCO3
IC50 2008: 22.4 nM
IC50 (SW-620): 0.84 nM
